Values after ≈ are worked out from the molar mass of the structure shown.
system: Streptomyces pyogenes; test: antimicrobial test in nutrient broth, minimum concentration (MIC) at which growth failed to occur; type: cell-based; settings: standardized conditions, read-out: In vitro MIC

SMILES	MIC
CC1=C(c2nn[nH]n2)N2C(=O)C(NC(=O)Cn3cnnn3)C2SC1 (centres unmarked)	6.2 µg/mL (≈ 17.8 µM)
CC1=C(c2nn[nH]n2)N2C(=O)C(NC(=O)[C@H](N)c3ccc(O)cc3)C2SC1 (stereo partly drawn) [D--4-HOC6H4CH(NH2)--, A = H, 7-[D-α-Amino-α-(p-hydroxyphenyl)acetamido]-3-methyl-4-(tetrazol-5-yl)-Δ^3-cephem]	1.5 µg/mL (≈ 3.87 µM)
CC1=C(c2nn[nH]n2)N2C(=O)C(NC(=O)CSc3nnc(C)s3)C2SC1 (centres unmarked) [R1 not printed, A = H]	0.78 µg/mL (≈ 1.9 µM)
Cn1nnnc1SCC1=C(c2nn[nH]n2)N2C(=O)C(NC(=O)Cc3cccs3)C2SC1 (centres unmarked)	0.1 µg/mL (≈ 0.21 µM)
Cn1nnnc1SCC1=C(c2nn[nH]n2)N2C(=O)C(NC(=O)[C@H](O)c3ccccc3)C2SC1 (stereo partly drawn) [7-D-(α-Hydroxy-α-phenylacetamido)-3-(1-methyltetrazol-5-ylthiomethyl)-4-(tetrazol-5-yl)-Δ^3-cephem]	3.12 µg/mL (≈ 6.41 µM)
CC1=C(c2nn[nH]n2)N2C(=O)C(NC(=O)Cc3ccccc3)C2SC1 (centres unmarked) [C6H5CH2--, A = H, 7-Phenylacetamido-3-methyl-4-(tetrazol-5-yl)-Δ^3-cephem]	0.78 µg/mL (≈ 2.19 µM)
CC(=O)OCC1=C(c2nn[nH]n2)N2C(=O)C(NC(=O)Cc3cccs3)C2SC1 (centres unmarked) [R1 not printed, A = OCOCH3]	1.6 µg/mL (≈ 3.81 µM)

The remaining compounds from weak to strong by MIC, led by results:

MIC	SMILES
3.1 µg/mL (≈ 8.32 µM)	CC1=C(c2nn[nH]n2)N2C(=O)C(NC(=O)COc3ccccc3)C2SC1 (centres unmarked) [C6H5OCH2--, A = H, 7-Phenoxyacetamido-3-methyl-4-(tetrazol-5-yl)-Δ^3-cephem]
1.5 µg/mL (≈ 4.03 µM)	CC1=C(c2nn[nH]n2)N2C(=O)C(NC(=O)[C@H](O)c3ccccc3)C2SC1 (stereo partly drawn) [D--C6H5CH(OH)--, A = H, 7-(D-α-Hydroxyphenylacetamido)-3-methyl-4-(tetrazol-5-yl)-Δ^3-cephem]
1.5 µg/mL (≈ 3.77 µM)	CC1=C(c2nn[nH]n2)N2C(=O)C(NC(=O)C(N=[N+]=[N-])c3ccccc3)C2SC1 (centres unmarked) [C6H5CH(N3)--, A = H]
0.4 µg/mL (≈ 1.1 µM)	CC1=C(c2nn[nH]n2)N2C(=O)C(NC(=O)Cc3cccs3)C2SC1 (centres unmarked) [R1 not printed, A = H]
